This note sets out measurements from US4298739A, “Novel carbostyril derivatives” (priority 1977, dated 1981).

Data set [1] concerns rabbit platelet. Nature of the data set: Collagen-induced aggregation in rabbit platelets (AG-II Aggregometer). It is filed as cell-based. As to conditions: Oryctolagus cuniculus, Platelet, read-out: Inhibition effect on collagen induced aggregation in rabbit platelet; for inhibition at 10 µM (stock): 10^-5 mole; for inhibition at 1 µM (stock): 10^-6 mole; for inhibition at 100 µM (stock): 10^-4 mole. As to the method: (§1) The platelet aggregation inhibitory effect is measured by using AG-II Aggregometer (manufactured by Bryston Manufacturing Co.). The blood sample used for the test is a 1/9 (by volume) mixture of sodium citrate and whole blood collected from rabbit. Said sample is subjected to 10-minute centrifugal separation at 1,000 r.p.m. to obtain a platelet rich plasma (PRP). The thus obtained PRP is separated, and the remaining blood sample is further subjected to 15-minute centrifugal separation at 3,000 r.p.m. to obtain a platelet poor plasma (PPP).
(§2) The number of platelets in the PRP is counted by the Brecher-Clonkite Method, and the PRP is diluted with the PPP to prepare a PRP sample with platelet concentration of 300,000/mm^3 for the adenosine diphosphate (ADP)-induced aggregation test. There is also prepared a PRP sample with platelet concentration of 450,000/mm^3 for the collagen-induced aggregation test.
(§3) 0.6 ml of said PRP sample is added into 0.01 ml of a solution of a test compound of a predetermined concentration and the mixture is placed in a 37° C. thermostat for one minute. Then 0.07 ml of an ADP or collagen solution is added to the mixture. Transmittance of this mixture is determined and the change of transmittance is recorded by using the aggregometer at stirrer speed of 1,100 r.p.m. In this test, Auren Beronal buffer (pH 7.35) is used for the preparation of the ADP or collagen solution. ADP is adjusted to a concentration of 7.5×10^-5 M, and the collagen solution is prepared by triturating 100 mg of collagen with 5 ml of said buffer and the supernatant is used as collagen inducer. Adenosine and acetylsalicylic acid are used as controls for the ADP-induced aggregation test and the collagen-induced aggregation test, respectively. The platelet aggregation inhibitory effect is measured in terms of percent inhibition with respect to the aggregation rate of the controls. The aggregation rate is calculated from the following formula:
(§4) Aggregation rate=(c-a)/(b-a)×100
(§5) b: transmittance of PRP containing a test compound and an aggregation inducer
(§6) The inhibitory effect of the tested compounds on collagen-induced aggregation in rabbit platelets is shown in Table 1, and such effect on ADP-induced aggregation is shown in Table 2. The compounds tested are as follows.

Data set [2] has as its system rabbit platelet. Nature of the data set: ADP-induced aggregation in rabbit platelets (AG-II Aggregometer). It is filed as cell-based. As to conditions: Oryctolagus cuniculus, Platelet, read-out: Inhibition effect on ADP-induced aggregation in rabbit platelet; for inhibition at 100 µM (stock): 10^-4 mole; for inhibition at 10 µM (stock): 10^-5 mole; for inhibition at 1 µM (stock): 10^-6 mole. The procedure:
as §1, §2, §3, §4, §5, §6

Data set [3] can be described thus: Concentration in blood of male Wister rats. It is filed as in vivo. As to conditions: 30 mg/kg water suspension; for concentration at 1 h / concentration at 2 h / concentration at 4 h / concentration at 6 h / concentration at 12 h / concentration at 8 h: rat, plasma, 30 mg/kg; for Concentration in blood: Rat. The procedure: (§7) A water suspension of test compound was administered at the dose of 30 mg/kg to the overnight fasted male Wister rats and male beagle dogs, and after a predetermined period of time, blood was collected from said animals to obtain plasma. 2 to 3 Milliliters of 0.1 N-NaOH and 2 ml of CHCl3 were added to 1 ml of the obtained plasma, and the mixture was shaken and extracted in a shaker for 2 hours, and after centrifugal separation, the organic layer was washed with 2 ml of 0.1 N-HCl. This organic layer was then subjected to a freezing and thawing treatment, and after evaporating chloroform under nitrogen stream, the residue was redissolved in 100 μl of chloroform and spotted on a thin layer plate of "Silica Gel 60 F254 " manufactured by Merck & Co., Inc. This was developed in a chloroform: butanol mixed solvent (5:1) and determined by measuring the spots with same Rf value as the test compound according to the absorbance method by using Shimazu CS-910 Thin Layer Chromato-scanner,and therefrom the concentration (μg/ml) of test compound A in blood was determined.

A short description of data set [4]: Concentration in blood of male beagle dogs. Type of data set: in vivo. As to conditions: 30 mg/kg water suspension; for concentration at 1 h / concentration at 2 h / concentration at 4 h / concentration at 6 h / concentration at 8 h / concentration at 12 h: dog, plasma, 30 mg/kg; for Concentration in blood: Beagle dog. As to the method:
as §7

Data set [5] is described as follows: Acute toxicity test, oral administration to mice. To be noted: mouse, in vivo, Male mice. It is filed as in vivo. As to the method: The test compounds were administered orally to the mice and LD50 (mg/kg) of the compounds was determined.

What is called inhibition is the share of the control response that was lost under treatment. In general, LD50 refers to the dose at which mortality reaches 50%. Lower therefore signals greater toxicity. Take `CC1CCCCC1N(C)C(=O)CCCOc1ccc2[nH]c(=O)ccc2c1` (stereo not drawn) [compound 1, 6-{3-[N-Methyl-N-(2-methylcyclohexyl)aminocarbonyl]propoxy}carbostyril]: the inhibition at 10 µM (stock) came to 100% in the data set on rabbit platelet [1] and 73% with rabbit platelet [2]. The results for the inhibition at 1 µM (stock) with rabbit platelet [1] and with rabbit platelet [2] were 100% and 42.4%, respectively. For the same molecule, the inhibition at 0.1 µM (stock) in the data set on rabbit platelet [1] (10^-7 mole) turned out to be 21.1%; with rabbit platelet [2] (10^-7 mole), 4.3%. The inhibition at 100 µM (stock) in the data set on rabbit platelet [2] was determined as 100%. Moreover, the figures for the concentration at 1 h in data set [3] and in data set [4] (1 hr.) were 1.05 µg/mL and 0.28 µg/mL, respectively. For the same molecule, the concentration at 2 h came to 1.62 µg/mL in data set [3] (2 hr.) and 0.31 µg/mL in data set [4] (2 hr.). For the same molecule, the concentration at 4 h in data set [3] (4 hr.) was 0.94 µg/mL; in data set [4] (4 hr.), 0.21 µg/mL. The concentration at 6 h in data set [3] was 0.53 µg/mL; in data set [4], 0.13 µg/mL. Moreover, the concentration at 12 h in data set [3] was 0.48 µg/mL; in data set [4], 0.05 µg/mL. This molecule had a concentration at 8 h in data set [4] of 0.08 µg/mL. Besides, in data set [5], the LD50 is greater than 1000 mg/kg.

Regarding `O=C1CCc2cc(OCCCC(=O)N(C3CCCCC3)C3CCCCC3)ccc2N1` [compound 18, 6-[3-(N,N-Dicyclohexylaminocarbonyl)propoxy]-3,4-dihydrocarbostyril], in the data set on rabbit platelet [1], the inhibition at 100 µM (stock) stood at 87.5%, the inhibition at 10 µM (stock) worked out at 59.4% and the inhibition at 1 µM (stock) was found to be 50%. For the same molecule, in the data set on rabbit platelet [2], the inhibition at 100 µM (stock) came out at 86.4%, the inhibition at 10 µM (stock) was 37.5% and the inhibition at 1 µM (stock) came to 12.6%. In data set [3], the concentration at 1 h was 1.32 µg/mL, the concentration at 6 h is 0.69 µg/mL, the concentration at 8 h was found to be 0.56 µg/mL and the concentration at 12 h was 0.42 µg/mL. The molecule further displayed a concentration at 2 h in data set [3] (2 hr.) of 1.74 µg/mL. The molecule also showed a concentration at 4 h in data set [3] (4 hr.) of 1.02 µg/mL. Further, the concentration at 1 h in data set [4] (1 hr.) is 0.36 µg/mL. The same molecule showed a concentration at 2 h in data set [4] (2 hr.) of 0.23 µg/mL. The molecule also had a concentration at 4 h in data set [4] (4 hr.) of 0.32 µg/mL. In data set [4], the concentration at 6 h was determined as 0.17 µg/mL, the concentration at 8 h was 0.13 µg/mL and the concentration at 12 h came out at 0.06 µg/mL. Also, the LD50 in data set [5] was greater than 1000 mg/kg.

`CCOC(=O)CCCOc1ccc2c(c1)CCC(=O)N2` [compound 29, 6-(3-Ethoxycarbonylpropoxy)-3,4-dihydrocarbostyril, reference compound]: the inhibition at 10 µM (stock) with rabbit platelet [1] worked out at 38%. The figures for the inhibition at 1 µM (stock) in the data set with rabbit platelet [1] and in the data set on rabbit platelet [2] were 8% and 10%, respectively. For the same molecule, the inhibition at 100 µM (stock) in the data set with rabbit platelet [2] turned out to be 100%. The Concentration in blood in data set [3] (2 hr.), in data set [3] (4 hr.), in data set [4] (2 hr.) and in data set [4] (4 hr.) was 0 µg/mL in each case. Besides, the concentration at 1 h in data set [3] and in data set [4] (1 hr.) was 0.01 µg/mL each time. The molecule also had a median lethal dose (LD50) in data set [5] greater than 1000 mg/kg.

Take `CCN(C(=O)CCCOc1ccc2[nH]c(=O)ccc2c1)c1ccccc1` [compound 20, 6-[3-(N-Ethylanilinocarbonyl)propoxy]carbostyril]: in the data set on rabbit platelet [1], the inhibition at 100 µM (stock) came to 91.3%, the inhibition at 10 µM (stock) worked out at 76.3% and the inhibition at 1 µM (stock) came out at 43.2%. In the data set on rabbit platelet [2], the inhibition at 100 µM (stock) stood at 82.5%, the inhibition at 10 µM (stock) was found to be 31.7% and the inhibition at 1 µM (stock) was 13.5%. In data set [3], this molecule had a concentration at 1 h of 0.95 µg/mL, a concentration at 6 h of 0.46 µg/mL and a concentration at 12 h of 0.28 µg/mL. In data set [3] (2 hr.), this molecule registered a concentration at 2 h of 1.37 µg/mL. This molecule also displayed a concentration at 4 h in data set [3] (4 hr.) of 0.92 µg/mL. This molecule yielded a concentration at 1 h in data set [4] (1 hr.) of 0.32 µg/mL. In addition, in data set [4], the concentration at 6 h amounted to 0.08 µg/mL and the concentration at 8 h worked out at 0.05 µg/mL. This molecule also had an LD50 in data set [5] greater than 1000 mg/kg.

`CCOC(=O)CCCOc1ccc2[nH]c(=O)ccc2c1` [compound 34, 6-(3-Ethoxycarbonylpropoxy)carbostyril, reference compound]: the inhibition at 100 µM (stock) in the data set on rabbit platelet [1] and with rabbit platelet [2] was 100% each time. The figures for the inhibition at 10 µM (stock) with rabbit platelet [1] and in the data set on rabbit platelet [2] were 86% and 90%, respectively. Besides, the figures for the inhibition at 1 µM (stock) in the data set with rabbit platelet [1] and with rabbit platelet [2] were 18% and 25%, respectively. Besides, the Concentration in blood in data set [3] (2 hr.), in data set [3] (4 hr.), in data set [4] (1 hr.) and in data set [4] (2 hr.) was 0 µg/mL throughout. The same molecule had a concentration at 1 h in data set [3] of 0.01 µg/mL. In addition, in data set [5], the LD50 is greater than 1000 mg/kg.

Turning to `CN(C(=O)CCCOc1cccc2c1CCC(=O)N2)C1CCCCC1` [compound 23, 5-[3-(N-Methyl-N-cyclohexylaminocarbonyl)propoxy]-3,4-dihydrocarbostyril], the inhibition at 100 µM (stock) was 76.5% in the data set on rabbit platelet [1] and 73.6% with rabbit platelet [2]. Further, the inhibition at 10 µM (stock) with rabbit platelet [1] turned out to be 58.7%; in the data set on rabbit platelet [2], 26.1%. In addition, the figures for the inhibition at 1 µM (stock) in the data set with rabbit platelet [1] and in the data set with rabbit platelet [2] were 13.5% and 8.7%, respectively. Further, the concentration at 1 h came out at 1.53 µg/mL in data set [3] and 0.43 µg/mL in data set [4] (1 hr.). For the same molecule, the concentration at 2 h in data set [3] (2 hr.) stood at 2.24 µg/mL; in data set [4] (2 hr.), 0.29 µg/mL. The concentration at 4 h in data set [3] (4 hr.) was 0.94 µg/mL; in data set [4] (4 hr.), 0.21 µg/mL. For the same molecule, the figures for the concentration at 6 h in data set [3] and in data set [4] were 0.54 µg/mL and 0.14 µg/mL, respectively. Further, the values for the concentration at 8 h in data set [3] and in data set [4] were 0.39 µg/mL and 0.05 µg/mL, respectively. The values for the concentration at 12 h in data set [3] and in data set [4] were 0.52 µg/mL and 0.07 µg/mL, respectively. Further, in data set [5], the LD50 is greater than 1000 mg/kg.

`O=C1CCc2cc(OCCCC(=O)N(c3ccccc3)c3ccccc3)ccc2N1` [compound 24, 6-[3-(N,N-Diphenylaminocarbonyl)propoxy]-3,4-dihydrocarbostyril]: in the data set on rabbit platelet [1], the inhibition at 100 µM (stock) was 82.7%, the inhibition at 10 µM (stock) amounted to 43.5% and the inhibition at 1 µM (stock) was determined as 15.5%. In addition, in the data set with rabbit platelet [2], the inhibition at 100 µM (stock) came to 43.2%, the inhibition at 10 µM (stock) was determined as 22.3% and the inhibition at 1 µM (stock) was found to be 13.4%. In data set [5], this molecule yielded an LD50 greater than 1000 mg/kg.
